Source: the supplement of paper PMC10307832

Legend:
Experiment in all cases: relative viability (nuclei count vs DMSO), 5 days (fraction); higher = more cells survive
Ibrutinib + Tozasertib = compound: C=CC(=O)N1CCC[C@@H](n2nc(-c3ccc(Oc4ccccc4)cc3)c3c(N)ncnc32)C1 [Ibrutinib] + Cc1cc(Nc2cc(N3CCN(C)CC3)nc(Sc3ccc(NC(=O)C4CC4)cc3)n2)n[nH]1 [Tozasertib] (partner 0.1 µM)
Procedure, shortened: (§1)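 One day after seeding in 1536-well plates, lung cancer cell lines were dosed by pin tool. Dosing was either single-drug or a fixed anchor-drug dose plus five library-drug doses (not always all listed) in √10 steps. After 5 days, nuclei were stained in one fix-and-stain step and counted on 4× images, and relative viability is the nuclei count of treated wells over that of vehicle wells, given as the median of duplicate plates.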

BMX-IN-1 + Phenformin = compound: C=CC(=O)Nc1cc(-n2c(=O)ccc3cnc4ccc(-c5ccc(NS(C)(=O)=O)cc5)cc4c32)ccc1C [BMX-IN-1] + N=C(N)NC(=N)NCCc1ccccc1 [Phenformin] (partner 250 µM)
Procedure, shortened: as §1

BMX-IN-1 + Pemetrexed = compound: C=CC(=O)Nc1cc(-n2c(=O)ccc3cnc4ccc(-c5ccc(NS(C)(=O)=O)cc5)cc4c32)ccc1C [BMX-IN-1] + Nc1nc2[nH]cc(CCc3ccc(C(=O)N[C@@H](CCC(=O)O)C(=O)O)cc3)c2c(=O)[nH]1 [Pemetrexed] (partner 0.2 µM)
Procedure, shortened: as §1

PAC-1 + Pemetrexed = compound: C=CCc1cccc(/C=N/NC(=O)CN2CCN(Cc3ccccc3)CC2)c1O [PAC-1] + Nc1nc2[nH]cc(CCc3ccc(C(=O)N[C@@H](CCC(=O)O)C(=O)O)cc3)c2c(=O)[nH]1 [Pemetrexed] (partner 0.2 µM)
Procedure, shortened: as §1

Cell Line	relative viability (Ibrutinib + Tozasertib; first compound 0.005 µM)	relative viability (Ibrutinib + Tozasertib; first compound 0.01581 µM)	relative viability (Ibrutinib + Tozasertib; first compound 0.05 µM)	relative viability (Ibrutinib + Tozasertib; first compound 0.1581 µM)	relative viability (Ibrutinib + Tozasertib; first compound 0.5 µM)	relative viability (BMX-IN-1 + Phenformin; first compound 0.02 µM)	relative viability (BMX-IN-1 + Phenformin; first compound 0.2 µM)	relative viability (BMX-IN-1 + Phenformin; first compound 0.6325 µM)	relative viability (BMX-IN-1 + Phenformin; first compound 2 µM)	relative viability (BMX-IN-1 + Pemetrexed; first compound 0.02 µM)	relative viability (BMX-IN-1 + Pemetrexed; first compound 0.2 µM)	relative viability (BMX-IN-1 + Pemetrexed; first compound 0.6325 µM)	relative viability (BMX-IN-1 + Pemetrexed; first compound 2 µM)	relative viability (PAC-1 + Pemetrexed; first compound 0.02 µM)	relative viability (PAC-1 + Pemetrexed; first compound 0.06325 µM)	relative viability (PAC-1 + Pemetrexed; first compound 0.2 µM)	relative viability (PAC-1 + Pemetrexed; first compound 2 µM)
UMC-11	0.194	0.203	0.203	0.203	0.188	0.294	0.316	0.356	0.367	0.92	0.792	0.754	0.754	0.78	0.791	0.802	0.79
NCI-H2023	0.388	0.303	0.324	0.394	0.324	0.466	0.522	0.418	0.413	0.285	0.304	0.226	0.26	0.211	0.215	0.244	0.229
NCI-H23	0.34	0.361	0.455	0.335	0.382	0.724	0.956	0.828	0.838	0.693	1.04	0.797	0.622	0.623	0.705	0.817	0.775
CAL-12T	0.324	0.309	0.268	0.365	0.151	0.59	0.544	0.579	0.54	1.27	1.36	1.37	1.15	1.22	1.23	1.15	1.16
LCLC-97TM1	0.601	0.426	0.216	0.241	0.224	0.383	0.455	0.503	0.471	0.142	0.191	0.195	0.2	0.184	0.177	–	0.191
NCI-H661	0.353	0.372	0.384	0.348	0.389	0.242	0.259	0.282	0.255	1.02	0.96	0.961	0.899	0.906	0.877	0.88	0.882
NCI-H1623	0.44	0.407	0.301	0.451	0.201	0.527	0.676	0.585	0.601	–	–	–	–	–	–	–	–
ABC-1	0.151	0.149	0.159	0.198	0.187	0.227	0.232	0.243	0.229	–	–	–	–	–	–	–	–
NCI-H727	0.542	0.578	0.624	–	0.533	0.532	0.546	0.584	0.392	–	–	–	–	–	–	–	–
NCI-H1792	–	–	–	–	–	0.235	0.354	0.292	0.312	0.903	1.28	0.885	1.17	0.712	0.894	0.829	0.957
NCI-H1648	0.549	0.368	0.467	0.537	0.358	–	–	–	–	0.733	0.721	0.875	0.765	0.676	0.838	0.81	0.646
